Results reported in US20250136559A1, “SMO MODULATOR COMPOUNDS” (OMASS THERAPEUTICS LIMITED, priority 2022, published 2025).

Experiments:
Assay type in all cases: cell-based
[1] = molecular target: T1, mouse SMO^W535L (Mus musculus, UniProt P56726, W539L); experiment: Mouse assay: Gli1 qPCR in MEF cells stably expressing mouse SMO W535L; conditions: mSHh-treated, 24 hours; for IC50: Gli1 inhibition by qPCR, read-out: Mouse W535L pIC50 (converted); for Mouse W535L % Inh: percentage Gli1 inhibition
T1 construct: expressed in transfected cells
T1 sequence (P56726 33-793 W539L): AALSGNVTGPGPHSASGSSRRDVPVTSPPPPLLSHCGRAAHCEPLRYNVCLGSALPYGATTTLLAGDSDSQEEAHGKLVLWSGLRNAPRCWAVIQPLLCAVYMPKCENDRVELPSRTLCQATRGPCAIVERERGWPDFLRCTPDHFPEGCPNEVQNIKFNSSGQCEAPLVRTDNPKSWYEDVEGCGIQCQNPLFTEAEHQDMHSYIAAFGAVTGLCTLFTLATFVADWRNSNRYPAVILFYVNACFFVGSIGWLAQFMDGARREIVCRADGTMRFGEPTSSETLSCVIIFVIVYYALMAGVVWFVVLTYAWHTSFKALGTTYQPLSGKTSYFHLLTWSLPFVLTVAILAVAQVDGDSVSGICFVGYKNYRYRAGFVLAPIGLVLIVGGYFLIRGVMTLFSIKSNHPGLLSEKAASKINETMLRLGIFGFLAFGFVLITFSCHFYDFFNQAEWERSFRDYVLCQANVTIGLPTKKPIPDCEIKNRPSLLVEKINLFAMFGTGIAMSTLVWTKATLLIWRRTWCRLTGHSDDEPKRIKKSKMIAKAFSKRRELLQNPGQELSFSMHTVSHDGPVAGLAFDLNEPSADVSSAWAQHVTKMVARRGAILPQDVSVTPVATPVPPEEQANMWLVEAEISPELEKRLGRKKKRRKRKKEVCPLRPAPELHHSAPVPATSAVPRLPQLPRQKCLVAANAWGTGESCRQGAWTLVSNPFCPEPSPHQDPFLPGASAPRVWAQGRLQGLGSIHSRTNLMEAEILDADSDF
Description: (§1) Cell culture. All materials were purchased from Sigma-Aldrich, unless otherwise stated.
(§2) Compound treatment. […] After 1 hour incubation, cells were treated with assay medium containing mSHh prepared at 2.5× of final assay concentrations specified in the text and incubated for a further 24 hours at 37′C in a humidified 95% air/5% CO2 atmosphere prior to qPCR analysis.
(§3) Cell lysis and one-step qPCR. The Cells-to-CT™ 1-Step TaqMan® Kit was used in conjunction with TaqMan primer-probe assays for the detection of Gli1 (FAM, Mm00494654_m1) and Gusb (VIC, Mm01197698_m1) genes (all purchased from Life Technologies). Following 24 hours cell treatment, spent medium was removed and cells were washed with PBS before the application of lysis and stop solution as per manufacturer's instructions. The qPCR reactions were run in a 384-well PCR plate using master mix prepared according to manufacturer's instructions and cell lysate samples from treatment wells. Real-time PCR amplification was detected using the Bio-Rad CFX384 Touch PCR system. Four experimental replicates (two cell replicates and two qPCR replicates) were performed for each compound concentration tested. Real-time data were analysed using the CFX Maestro software (Bio-Rad) and obtained expression values were converted to percentage Gli1 inhibition by normalising to the average Gli1 expression of mSHh-treated control samples.

[2] = molecular target: T2, mouse SMO^D473H (Mus musculus, UniProt P56726, D477H); experiment: Mouse assay: Gli1 qPCR in MEF cells stably expressing mouse SMO D473H; conditions: mSHh-treated, 24 hours; for IC50: Gli1 inhibition by qPCR, read-out: Mouse D473H pIC50 (converted); for Mouse D473H % Inh: percentage Gli1 inhibition
T2 construct: expressed in transfected cells
T2 sequence (P56726 33-793 D477H): as the sequence (P56726 33-793 W539L) above, with D445H, L507W counted along it
Description: as §1, §2, §3

[3] = molecular target: T3, mouse SMO^WT (Mus musculus, UniProt P56726); experiment: Mouse assay: Gli1 qPCR in MEF cells stably expressing mouse SMO WT; conditions: mSHh-treated, 24 hours; for IC50: Gli1 inhibition by qPCR, read-out: Mouse WT pIC50 (converted); for Mouse WT % Inh: percentage Gli1 inhibition
T3 construct: expressed in transfected cells
T3 sequence (P56726 33-793): as the sequence (P56726 33-793 W539L) above, with L507W counted along it
Description: as §1, §2, §3

| Compound | IC50 [1] [nM] | Mouse W535L % Inh [1] [%] | IC50 [2] [nM] | Mouse D473H % Inh [2] [%] | IC50 [3] [nM] | Mouse WT % Inh [3] [%] |
| --- | --- | --- | --- | --- | --- | --- |
| O=C(Nc1ccc(-c2nc(-c3ccc(C(F)(F)F)s3)n[nH]2)cc1)c1cccc(CN2CCS(=O)(=O)CC2)c1 [Example 3-16, 3-[(1,1-Dioxo-1,4-thiazinan-4-yl)methyl]-N-[4-[3-[5-(trifluoromethyl)thiophen-2-yl]-1H-1,2,4-triazol-5-yl]phenyl]benzamide] | 794 | 58.5 | 794 | 93.9 | 100 | 99.4 |
| Cc1c(-c2ccc(NC(=O)c3cccc(CN4CCS(=O)(=O)CC4)c3)cc2)nn(C)c1C1CC1 [Example 4-25, N-[4-(5-Cyclopropyl-1,4-dimethylpyrazol-3-yl)phenyl]-3-[(1,1-dioxo-1,4-thiazinan-4-yl)methyl]benzamide] | 15.8 | 65.7 | 5.01 | 98.6 | 0.398 | 98.3 |
| Cc1cc(Cc2n[nH]c(-c3ccc(NC(=O)c4cccc(CN5CCS(=O)(=O)CC5)c4)cc3)n2)ccc1Br [Example 3-27, N-[4-[5-[(4-Bromo-3-methylphenyl)methyl]-1H-1,2,4-triazol-3-yl]phenyl]-3-[(1,1-dioxo-1,4-thiazinan-4-yl)methyl]benzamide] | 158 | 57.3 | 631 | 97.0 | 15.8 | 99.3 |
| O=C(Nc1ccc(-c2nc(Cc3ccc(Cl)cc3)n[nH]2)cc1)c1cccc(CN2CCS(=O)(=O)CC2)c1 [Example 3-23, N-[4-[3-[(4-Chlorophenyl)methyl]-1H-1,2,4-triazol-5-yl]phenyl]-3-[(1,1-dioxo-1,4-thiazinan-4-yl)methyl]benzamide] | 25.1 | 58.2 | 316 | 95.0 | 7.94 | 99.5 |
| O=C(Nc1ccc(-c2nc(C3CC3)n[nH]2)cc1)c1ccc(Cl)c(CN2CCS(=O)(=O)CC2)c1 [Example 2-5, 4-Chloro-N-[4-(5-cyclopropyl-1H-1,2,4-triazol-3-yl)phenyl]-3-[(1,1-dioxo-1,4-thiazinan-4-yl)methyl]benzamide] | 100 | 72.2 | 158 | 94.4 | 15.8 | 95.5 |
| O=C(Nc1ccc(-c2nc(C3CCN(c4ccccc4)C3)n[nH]2)cc1)c1cccc(CN2CCS(=O)(=O)CC2)c1 (stereo not drawn) [Example 3-8, 3-[(1,1-Dioxo-1,4-thiazinan-4-yl)methyl]-N-[4-[3-(1-phenylpyrrolidin-3-yl)-1H-1,2,4-triazol-5-yl]phenyl]benzamide] | 100 | 57.9 | 158 | 98.0 | 20 | 98.6 |
| COc1ccc(-c2n[nH]c(-c3ccc(NC(=O)c4cccc(CN5CCS(=O)(=O)CC5)c4)cc3)n2)cc1 [Example 3-12, 3-[(1,1-Dioxo-1,4-thiazinan-4-yl)methyl]-N-[4-[5-(4-methoxyphenyl)-1H-1,2,4-triazol-3-yl]phenyl]benzamide] | 316 | 53.3 | 200 | 97.5 | 12.6 | 99.0 |
| O=C(Nc1ccc(-c2nc(Cc3cccc(F)c3)n[nH]2)cc1)c1cccc(CN2CCS(=O)(=O)CC2)c1 [Example 3-20, 3-[(1,1-Dioxo-1,4-thiazinan-4-yl)methy]-N-[4-[3-[(3-fluorophenyl)methyl]-1H-1,2,4-triazol-5-yl]phenyl]benzamide] | 25.1 | 66.1 | 251 | 96.8 | 15.8 | 99.0 |
| COc1ccc(Cc2n[nH]c(-c3ccc(NC(=O)c4cccc(CN5CCS(=O)(=O)CC5)c4)cc3)n2)cn1 [Example 3-30, 3-[(1,1-Dioxo-1,4-thiazinan-4-yl)methyl]-N-[4-[5-[(6-methoxypyridin-3-yl)methyl]-1H-1,2,4-triazol-3-yl]phenyl]benzamide] | 501 | 69.1 | 631 | 98.4 | 79.4 | 99.0 |
| O=C(Nc1ccc(-c2nc(C3CC3)n[nH]2)cc1)c1cc(CN2CCS(=O)(=O)CC2)ccc1F [Example 2-1, N-[4-(5-Cyclopropyl-1H-1,2,4-triazol-3-yl)phenyl]-5-[(1,1-dioxo-1,4-thiazinan-4-yl)methyl]-2-fluorobenzamide] | 79.4 | 68.2 | 200 | 95.3 | 15.8 | 96.5 |
| O=C(Nc1ccc(-c2cnc(C3CC3)o2)cc1)c1cccc(CN2CCS(=O)(=O)CC2)c1 [Example 4-5, N-[4-(2-Cyclopropyl-1,3-oxazol-5-yl)phenyl]-3-[(1,1-dioxo-1,4-thiazinan-4-yl)methyl]benzamide] | 158 | 63.2 | 100 | 99.7 | 7.94 | 99.9 |
| Cc1ccc(Cc2n[nH]c(-c3ccc(NC(=O)c4cccc(CN5CCS(=O)(=O)CC5)c4)cc3)n2)cc1C [Example 3-25, N-[4-[5-[(3,4-Dimethylphenyl)methyl]-1H-1,2,4-triazol-3-yl]phenyl]-3-[(1,1-dioxo-1,4-thiazinan-4-yl)methyl]benzamide] | 39.8 | 80.5 | 100 | 97.4 | 2 | 98.5 |
| Cn1nc(-c2ccc(NC(=O)c3ccc(Cl)c(CN4CCS(=O)(=O)CC4)c3)cc2)cc1C1CC1 [Example 4-24, 4-Chloro-N-[4-(5-cyclopropyl-1-methylpyrazol-3-yl)phenyl]-3-[(1,1-dioxo-1,4-thiazinan-4-yl)methyl]benzamide] | 10 | 70.0 | 7.94 | 98.1 | 0.631 | 97.9 |
| Cc1oc(-c2ccc(NC(=O)c3ccc(Cl)c(CN4CCS(=O)(=O)CC4)c3)cc2)nc1C1CC1 [Example 4-4, 4-Chloro-N-[4-(4-cyclopropyl-5-methyl-1,3-oxazol-2-yl)phenyl]-3-[(1,1-dioxo-1,4-thiazinan-4-yl)methyl]benzamide] | 12.6 | 79.0 | 3.16 | 98.5 | 0.2 | 99.5 |
| O=C(Nc1ccc(-c2nc(Cc3cc4c(cc3Cl)OCO4)n[nH]2)cc1)c1cccc(CN2CCS(=O)(=O)CC2)c1 [Example 3-29, N-[4-[3-[(6-Chloro-1,3-benzodioxol-5-yl)methyl]-1H-1,2,4-triazol-5-yl]phenyl]-3-[(1,1-dioxo-1,4-thiazinan-4-yl)methyl]benzamide] | 126 | 64.8 | 251 | 98.9 | 25.1 | 99.1 |
| O=C(Nc1ccc(-c2cc(C3CC3)n[nH]2)cc1)c1ccc(Cl)c(CN2CCS(=O)(=O)CC2)c1 [Example 4-20, 4-chloro-N-[4-(5-cyclopropyl-1H-pyrazol-3-yl)phenyl]-3-[(1,1-dioxo-1,4-thiazinan-4-yl)methyl]benzamide] | 10 | 51.6 | 31.6 | 98.4 | 2.51 | 99.1 |
| Cl.O=C(Nc1ccc(-c2noc(C3CC3)n2)cc1)c1cccc(CN2CCS(=O)(=O)CC2)c1 [Example 4-12, N-[4-(5-Cyclopropyl-1,2,4-oxadiazol-3-yl)phenyl]-3-[(1,1-dioxo-1,4-thiazinan-4-yl)methyl]benzamide] | 158 | 57.8 | 39.8 | 99.8 | 10 | 99.6 |
| O=C(Nc1ccc(-c2noc(C3CCCC3)n2)cc1)c1cccc(CN2CCS(=O)(=O)CC2)c1 [Example 4-14, N-[4-(5-Cyclopentyl-1,2,4-oxadiazol-3-yl)phenyl]-3-[(1,1-dioxo-1,4-thiazinan-4-yl)methyl]benzamide] | 794 | 74.2 | 200 | 99.1 | 10 | 98.2 |
| O=C(Nc1ccc(-c2nc(Cc3ccccc3F)n[nH]2)cc1)c1cccc(CN2CCS(=O)(=O)CC2)c1 [Example 3-19, 3-[(1,1-Dioxo-1,4-thiazinan-4-yl)methy]-N-[4-[3-[(2-fluorophenyl)methyl]-1H-1,2,4-triazol-5-yl]phenyl]benzamide] | 39.8 | 64.3 | 316 | 96.9 | 25.1 | 99.1 |
